Where a name gives a salt, the structure may show the parent alone.

In this assay the test system is histamine-induced conjunctivitis. Briefly: Effect on rat histamine-induced conjunctivitis. To be noted: 0.5 w/v % cetirizine hydrochloride; 3 μl per eye 40 and 20 minutes before histamine. It is filed as in vivo, Male Wistar rats. As to the method:
Male Wistar rats of about 100 g in weight were injected subconjunctivally each with 50 μl of 0.1 w/v % histamine at the upper eyelid. Each of the following test ophthalmic compositions in solution form was instilled into both eyes of the rats in the corresponding group at a dose of 3 μl for each eye 40 and 20 minutes before the histamine injection. The rats were sacrificed one hour after the histamine injection. The palpebral conjunctival edema weight was measured, and the edema inhibition rate was calculated using the edema weight of the physiological saline group as the maximal response.

As to `O=C(O)COCCN1CCN(C(c2ccccc2)c2ccc(Cl)cc2)CC1` (stereo not shown) [cetirizine hydrochloride], the edema inhibition rate result is reported as “about 88.8%”.

Values taken from US5419898A, “Antiallergic composition for ophthalmic or nasal use” (priority 1992, dated 1995).
